The text below walks through data of patent publication US20020058636A1, “RIBOZYMES TARGETING THE RETROVIRAL PACKAGING SEQUENCE EXPRESSION CONSTRUCTS AND RECOMBINANT RETROVIRUSES CONTAINING SUCH CONSTRUCTS” (priority 1994, published 2002).

Holding throughout (assay type): cell-based
Series [1] deals with HIV-1 (SF2). Description: Syncitia formation of infected SupT1 cells over days post infection. How it is done: The anti-HIV packaging site construct, pSV-Rz-HIV-Psi, was electroporated into Sup T-1 cells, a human T lymphoma cell line. Exponentially growing cells were harvested and the number of viable cells counted by dye exclusion. The cells were washed with PBS and resuspended at a density of 1×10^7 viable cells/ml in RPMI media without FCS but containing 10 m,M dextrose and 0.1 mM dithiothreitol. 0.4 ml of the cell suspension and 10 μg of pSV-Rz-HIV-Psi plasmid DNA were used per electroporation in 0.4 cm cuvettes (Bio-Rad) . The cell and DNA mixture was subjected to a single pulse of 960 μF, 200V from a Gene Pulser (Bio-Rad) . After shocking, the cuvette was incubated for 10 minutes at room temperature, and the cells were then transferred to 10 ml of RPMI media with 10% FCS and placed into an incubator (5%CO2, 37° C.). At 48 hours post electroporation, the cells were selected in medium supplemented with 800 μg/ml G418. 9-12 days later, positive colonies were isolated and grown as clonal isolates to be used in a HIV protection assay.
(§1) Two assays, p24 antigen and syncytium formation, were performed to assess efficacy of the anti-HIV Psi ribozyme construct in cell culture. HIV-1 p24 antigen assay is an enzyme immunoassay, which uses a murine monoclonal antibody against HIV core antigen coated onto microwell strips. The HIV-1 syncytium assay is based on the observation that HIV-1 interacts with target T lymphocytes by causing fusion resulting in the formation of syncytia, large cells containing many nuclei. The clonal ribozyme-construct expressing cells, plus controls, were infected with HIV-1 (SF2) at m.o.i. of 0.1 to 1. After 2 hours, the cells were washed, and 10 ml of fresh media was added. Every 3-4 days, the number of both syncitia and viable cells were counted. […] In addition, the presence of the ribozyme caused a delay in syncitia formation (Table 4).

The subject of series [2] is HIV-1 (SF2). Description: HIV-1 p24 antigen assay in ribozyme-expressing Sup T-1 cells. The protocol:
Vector, is the control construct. Rz-2 and Rz-M are two ribozyme constructs targeted to the tat gene of HIV. Rz-M is a multi-ribozyme containing several ribozymes targeted to different sites within tat. This includes the site targeted by Rz-2.
as §1
In another experimental protocol, the cells were pelleted, and an aliquot of the supernatant taken for p24 assay. In this experiment there was an inhibition of p24 levels to day 22 post challenge.

The subject of another series is HIV-1 IIIB. Description: BM12 antibody and ribozyme expression, p24 production in SupT1 cells. The note with it: BM12 Concentration 0.00 μg/ml. How it is done: The anti-HIV-1 antibody BM12 has been tested for its potential combined effect with ribozymes on HIV-1 replication. Rz2 (a single ribozyme targeted to the HIV-1 tat gene) and SV2neo vector expressing SupT1 cells were infected with HIV-1 IIIB virus for 2 hr and then washed. The cells were resuspended in BM12 antibody containing medium (0, 0.5, 5, 50 μg BM12 antibody/ml) and incubated at 37° C., 5% CO2. Samples of medium were taken at days 3, 5, 9, 12 and 15 for p24 assays. Cytopathic effect (CPE) determined by syncytia formation was monitored at days 3, 6, 9, 12. […] The following Table 6 summarizes the p24 data at day 15.

Turning to “GTCAAAAATTGGCGCTGATGAGTCCGTGAGGACGAAACTCACCAGTCGCCG (chemistry not given here) [Rz-Psi, single anti-HIV Psi packaging site ribozyme cloned into neo r gene of pSV2neo]”, the Syncitia formation entry in the series with HIV-1 (SF2) [1] (6 Days Post Infection) is listed as “− (−, no syncytia)”; with HIV-1 (SF2) [1] (7 Days Post Infection), “− (−, no syncytia)”; in the series with HIV-1 (SF2) [1] (8 Days Post Infection) it was “− (−, no syncytia)”; with HIV-1 (SF2) [1] (9 Days Post Infection) it was “− (−, no syncytia)”; in the series on HIV-1 (SF2) [1] (10 Days Post Infection) it was “− (−, no syncytia)”; in the series on HIV-1 (SF2) [1] (11 Days Post Infection), “− (−, no syncytia)”.
On to “TTAGGATCCTGATGAGTCCGTGAGGACGAAACTGGCTC (chemistry not given here) [Rz-2, single ribozyme targeted to the HIV-1 tat gene]”, for which, in the series on HIV-1 (SF2) [2], the “inhibition of HIV-1 replication” value was “effective in inhibiting HIV-1 replication”. For the same sequence, the “p24 Production at Day 15” value in the series on HIV-1 IIIB amounted to 1.90 ng/mL.
